From paper PMC6941357, “An in vitro toolbox to accelerate anti-malarial drug discovery and development” (Malaria Journal, 2020)
Converted amounts (≈) assume the structure as drawn. “And” between values parts separate entries of the source, which are not always exact repeats. Identical values can stand only once. Like-named read-outs stand apart in the source and are kept apart here. Marks after values point to notes of the source that are not given here.

Experiments:
[1] = Ionization constants by potentiometric titration; type: physicochemical; settings: mean ± SD, n = 3 titrations; for pKa: aqueous solution (DMSO stock diluted 1:10 with water), read-out: Measured pKa
Experimental: The autotitrator was controlled by Tiamo software (Version 1.3). pH measurements were conducted using a Metrohm LL Micro glass electrode which was calibrated on the day of use with calibration standards at pH 2, 4, 7 and 10. All reagents were standardized (directly or indirectly) against potassium hydrogen phthalate (Sigma-Aldrich, A.C.S. Acidimetric Standard). Titrant solutions were protected from carbon dioxide absorption by flushing with nitrogen before sealing or by the incorporation of a drying tube filled with self-indicating soda lime into the titration reaction vessel set-up.
Aliquots were introduced directly into the titration vessel and diluted 1:10 with water (typical final compound concentration of 0.5 mM).

physchem = settings: for solubility / solubility at 1 h: thermodynamic from solid
How it was run: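 LC–MS quantification of supernatants, after two centrifugations, in triplicate against calibration standards. Media: FaSSGF sampled at 1 h; FaSSIF-V2, FeSSIF-V2 and pH 7.4 PBS sampled at 5–6 h; all at 37 °C on an orbital mixer at 600 rpm.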

[2] = Solubility limited absorbable dose (SLAD) calculation with predicted human jejunal Peff; settings: for solubility: FaSSIF; for An (absorption number): Peff × tres/R, minimum 1; for Permeability classification: based on ref 80 and control compounds; for Predicted human Peff: from Caco-2 Papp via calibration plot; for Ssi (estimated solubility in the small intestine): based on measured FaSSIF solubility
Excerpt: Predicted Peff values were obtained from a calibration plot of literature Peff values vs measured Caco-2 Papp using either buffer or plasma as the transport medium (see Results section).

CYP1A2 = target: T1, CYP1A2 (Homo sapiens, UniProt P05177); assay: Cytochrome P450 inhibition in human liver microsomes
T1 sequence (P05177 1-516): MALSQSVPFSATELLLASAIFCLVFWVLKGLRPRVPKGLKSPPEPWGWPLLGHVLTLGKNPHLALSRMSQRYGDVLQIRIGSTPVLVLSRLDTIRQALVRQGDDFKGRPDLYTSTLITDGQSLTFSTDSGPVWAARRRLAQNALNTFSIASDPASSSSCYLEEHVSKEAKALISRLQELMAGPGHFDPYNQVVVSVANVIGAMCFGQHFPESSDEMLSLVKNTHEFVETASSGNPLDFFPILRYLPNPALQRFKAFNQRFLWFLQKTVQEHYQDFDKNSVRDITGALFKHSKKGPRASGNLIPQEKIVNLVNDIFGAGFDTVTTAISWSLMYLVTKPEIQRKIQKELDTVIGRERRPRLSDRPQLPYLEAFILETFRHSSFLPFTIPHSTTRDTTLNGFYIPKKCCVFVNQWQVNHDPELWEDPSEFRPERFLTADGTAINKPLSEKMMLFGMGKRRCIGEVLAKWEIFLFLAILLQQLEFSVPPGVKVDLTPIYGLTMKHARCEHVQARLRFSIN
How it was run: (§1)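 Activity of each isoform followed via a specific probe-substrate metabolite formed in human liver microsomes; reactions quenched with ice-cold acetonitrile and metabolite measured by LC–MS. Percent inhibition taken versus metabolite formation without inhibitor; Km from metabolite formation rate (pmol/min/mg protein) across substrate concentrations.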

CYP2C19 = CYP2C19 (Homo sapiens, UniProt P33261); assay: as above; settings: for inhibition at 20 µM: human, pH 7.4
CYP2C19, sequence (P33261 whole entry): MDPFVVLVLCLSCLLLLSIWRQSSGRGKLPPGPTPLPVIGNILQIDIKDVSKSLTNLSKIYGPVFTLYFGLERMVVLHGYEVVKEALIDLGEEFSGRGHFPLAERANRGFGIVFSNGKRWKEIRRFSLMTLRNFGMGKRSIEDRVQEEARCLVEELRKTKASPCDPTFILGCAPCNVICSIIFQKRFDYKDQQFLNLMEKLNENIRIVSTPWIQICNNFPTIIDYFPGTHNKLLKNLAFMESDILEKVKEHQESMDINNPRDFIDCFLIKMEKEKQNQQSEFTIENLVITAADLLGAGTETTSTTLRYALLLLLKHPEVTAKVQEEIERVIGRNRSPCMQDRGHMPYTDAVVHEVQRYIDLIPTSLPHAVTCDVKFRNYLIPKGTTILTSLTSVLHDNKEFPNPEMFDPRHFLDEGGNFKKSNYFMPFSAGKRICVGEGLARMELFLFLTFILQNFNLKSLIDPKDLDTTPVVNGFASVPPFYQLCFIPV
How it was run: as §1

CYP2C9 = CYP2C9 (Homo sapiens, UniProt P11712); assay: as above
CYP2C9, sequence (P11712 whole entry): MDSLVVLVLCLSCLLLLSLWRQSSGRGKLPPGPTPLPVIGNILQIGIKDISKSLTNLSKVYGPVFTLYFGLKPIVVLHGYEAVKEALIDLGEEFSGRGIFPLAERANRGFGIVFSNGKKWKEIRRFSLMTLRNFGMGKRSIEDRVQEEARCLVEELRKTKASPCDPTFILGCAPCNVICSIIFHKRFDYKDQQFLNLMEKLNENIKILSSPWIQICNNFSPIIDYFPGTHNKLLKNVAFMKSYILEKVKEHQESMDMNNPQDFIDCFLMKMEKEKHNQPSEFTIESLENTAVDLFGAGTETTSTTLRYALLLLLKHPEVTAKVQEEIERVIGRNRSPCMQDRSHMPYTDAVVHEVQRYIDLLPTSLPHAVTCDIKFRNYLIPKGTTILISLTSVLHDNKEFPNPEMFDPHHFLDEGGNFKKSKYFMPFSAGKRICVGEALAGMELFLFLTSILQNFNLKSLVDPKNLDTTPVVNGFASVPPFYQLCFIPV
How it was run: as §1

human liver microsomes = assay: in vitro; settings: for HLM CLint: microsomes
How it was run: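 Intrinsic clearance (µL/min/mg protein) came from the first-order substrate-depletion rate in human liver microsomes, using only the initial log-linear phase where kinetics deviated. Samples were quenched at 2, 5, 15, 30 and 60 min and quantified by LC–MS. Unbound CLint was obtained by dividing by microsomal fu.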

[3] = FaSSGF, 37 °C, fassgf or other biorelevant
[4] = phosphate buffered saline pH 7.4, 37 °C, pH 7.4, aqueous buffer

SMILES	solubility at 1 h (physchem; [3])	solubility (physchem; FaSSIF-V2, 37 °C, fassif)	solubility (physchem; FeSSIF-V2, 37 °C, fessif)	solubility (physchem; [4])	solubility [2] [µg/mL]	An (absorption number) [2]	SLAD ([2]; Ssi × V (500 mL) × Mp) [mg]	Permeability classification [2]	Predicted human Peff [2]	IC50 (CYP1A2) [µM]	IC50 (CYP2C19) [µM]	CYP2C19 % inhibition at max conc (CYP2C19; microsomes)	IC50 (CYP2C9) [µM]	CYP2C9 % inhibition at max conc (CYP2C9; microsomes)	CYP1A2 % inhibition at max conc (CYP1A2; microsomes)	pKa ([1]; basic pKa (B))	further results
C[C@H]1[C@H](OC(=O)CCC(=O)O)O[C@@H]2O[C@@]3(C)CC[C@H]4[C@H](C)CC[C@@H]1[C@@]24OO3 [Artesunate]	835 µM (≈ 321 µg/mL)	1690 µg/mL and 4390 µM	1720 µg/mL and 4490 µM	1680 µg/mL and 4370 µM	1690 (≈ 4400 µM)	1.0	845	Intermediate (50–84% absorption (intermediate))	0.66 10^−4 cm/s	20	> 20	nmi	> 20	nmi	–	–	pKa ([1]; acidic pKa (A)): 4.7 ± 0.04; solubility (physchem; 37 °C, fassgf or other biorelevant): 321 µg/mL (≈ 835 µM); Ki (CYP1A2): 12 µM
CCc1nc(N)nc(N)c1OCCCOc1ccccc1CCC(=O)O.Cl [P218]	–	–	–	–	–	1.0	–	Low (< 50% absorption (low))	0.24 10^−4 cm/s	–	–	nmi	–	nmi	nmi	–	Measured pKa ([1]; acidic pKa (A)): 4.9 ± 0.002; Measured pKa ([1]; basic pKa (B)): 7.3 ± 0.003; Solubility FaSSGF (1 h) (physchem; 37 °C): > 2000 µg/mL and > 5550 µM; Solubility FaSSIF-V2 (5–6 h) (physchem; 37 °C): 408 µg/mL and 1130 µM; Solubility FeSSIF-V2 (5–6 h) (physchem; 37 °C): 525 µg/mL and 1460 µM; Solubility PBS7.4 (5–6 h) (physchem; 37 °C): 1070 µg/mL and 2960 µM; solubility in all media tested (physchem; FaSSGF, FaSSIF-V2, FeSSIF-V2, PBS pH 7.4): 400 to 500 µg/mL; SLAD [2]: 204 mg; Ssi (estimated solubility in the small intestine) [2]: 408 µg/mL; Unbound CLint (human liver microsomes): < 7.95^c µL/min/mg; HLM CLint (human liver microsomes; human): < 7^b µL/min/mg; IC50 (CYP1A2; microsomes): > 20 µM; IC50 (CYP2C19; microsomes): > 20 µM; IC50 (CYP2C9; microsomes): > 20 µM
CCc1nc(N)nc(N)c1-c1ccc(Cl)cc1 [Pyrimethamine]	> 2000 µg/mL and > 8000 µM	111 µg/mL and 446 µM	120 µg/mL and 483 µM	43 µg/mL and 175 µM	–	5.9	326	High (> 85% absorption (high))	4.9 10^−4 cm/s	> 20	–	nmi	–	nmi	nmi	6.9 ± 0.1	–
COc1ncnc(NS(=O)(=O)c2ccc(N)cc2)c1OC [Sulfadoxine]	324 µg/mL and 1040 µM	858 µg/mL and 2770 µM	474 µg/mL and 1530 µM	> 1900 µg/mL and > 6400 µM	858 (≈ 2760 µM)	2.2	959	High (> 85% absorption (high))	1.9 10^−4 cm/s	> 20	> 20	nmi	> 20	nmi	nmi	–	pKa ([1]; acidic pKa (A)): 6.2 ± 0.01
Cc1cc(Nc2ccc(C(F)(F)F)nc2)n2nc(C(C)(F)F)nc2n1 [DSM421]	–	–	–	–	–	3.9	–	High (> 85% absorption (high))	3.3 10^−4 cm/s	–	–	–	–	–	–	–	Measured pKa ([1]; basic pKa (B)): no ionizations could be detected; Solubility PBS7.4 (5–6 h) (physchem; 37 °C): 85.5 µg/mL and 239 µM; SLAD [2]: 182 mg; Ssi (estimated solubility in the small intestine) [2]: 93.0 µg/mL; Unbound CLint (human liver microsomes): < 9.09^c µL/min/mg; HLM CLint (human liver microsomes; human): < 7^b µL/min/mg
C[C@H]1Cc2c([nH]c3cc(Cl)c(F)cc23)[C@@]2(N1)C(=O)Nc1ccc(Cl)cc12 [KAE609]	1540 µg/mL and 3940 µM	111 µg/mL and 284 µM	1240 µg/mL and 3180 µM	30.4 µg/mL and 77.9 µM	111 (≈ 284 µM)	13	738	High (> 85% absorption (high))	11 10^−4 cm/s	4.5	< 0.25	–	5.5	–	–	5.1 ± 0.02	Ki (CYP1A2): 2.7 µM; Ki (CYP2C19): < 0.15 µM; Ki (CYP2C9): 4 µM
COc1cc(C)c2c(Oc3cccc(C(F)(F)F)c3)c(OC)cc(NC(C)CCCN)c2n1 (stereo not drawn) [Tafenoquine]	> 2000 µg/mL and > 2800 µM	15.8 µg/mL and 34.1 µM	1310 µg/mL and 2820 µM	18.3 µg/mL and 39.5 µM	15.8 (≈ 34.1 µM)	13	105	High (> 85% absorption (high))	11 10^−4 cm/s	> 20	> 20	–	14	–	–	8.7 ± 0.09	FaSSGF solubility (physchem; FaSSGF): > 2000 µg/mL; inhibition at 20 µM (CYP1A2; human, microsomes, pH 7.4): 20%; inhibition at 20 µM (CYP2C19; microsomes): 42%; Ki (CYP2C9): 10 µM
CC1(C)N=C(N)N=C(N)N1c1ccc(Cl)cc1 [Cycloguanil]	> 2000 µg/mL and > 7950 µM	> 2000 µg/mL and > 7950 µM	533 µg/mL and 2120 µM	> 2000 µg/mL and > 7950 µM	–	–	–	–	–	> 20	> 20	nmi	> 20	nmi	nmi	11.4 ± 0.3	–
N#Cc1cc(NC(=O)[C@H]2c3ccccc3C(=O)N(CC(F)(F)F)[C@@H]2c2cccnc2)ccc1F [SJ733]	> 2000 µg/mL and > 4270 µM	101 µg/mL and 216 µM	119 µg/mL and 254 µM	115 µg/mL and 246 µM	101 (≈ 216 µM)	2.2	109	High (> 85% absorption (high))	1.8 10^−4 cm/s	> 20	> 20	–	> 20	–	nmi	4.1 ± 0.03	inhibition at 20 µM (CYP2C19; microsomes): 38%; inhibition at 20 µM (CYP2C9; human, microsomes, pH 7.4): 33%
CS(=O)(=O)c1ccc(-c2cnc(N)c(-c3ccc(C(F)(F)F)nc3)c2)cc1 [MMV048]	1200 µg/mL and 3040 µM	6.73 µg/mL and 17.1 µM	7.47 µg/mL and 19 µM	4.52 µg/mL and 11.5 µM	6.7 (≈ 17 µM)	4.5	15	High (> 85% absorption (high))	3.8 10^−4 cm/s	> 20	> 20	nmi	> 20	nmi	nmi	4 ± 0.07	–
CCNCc1cc(Nc2ccnc3cc(Cl)ccc23)ccc1O [Desethylamodiaquine]	–	–	–	–	–	–	–	–	–	> 18	> 18	nmi	> 18	nmi	nmi	8.5 ± 0.05	–
OC(c1cc(C(F)(F)F)nc2c(C(F)(F)F)cccc12)C1CCCCN1 (stereo not drawn) [Mefloquine]	740 µg/mL and 1960 µM	584 µg/mL and 1540 µM	> 2000 µg/mL and > 5200 µM	290 µg/mL and 767 µM	584 (≈ 1540 µM)	–	–	High (> 85% absorption (high))	–	–	–	–	–	nmi	nmi	8.5 ± 0.04	Unbound CLint (human liver microsomes; human, 1 µM, pH 7.4): < 140^c µL/min/mg
